Test results from patent US9695155B2, “Herbicidal substituted pyrimidinyloxy benzene compounds” (E. I. DU PONT DE NEMOURS AND COMPANY, priority 2013, dated 2017).

Tests used:
kochia = test: Test C preemergence; type: in vivo, Kochia scoparia; details: for Kochia plant response rating: preemergence, scale 0 (no effect) to 100 (complete control)
Description: (§1) Seeds of plant species selected from blackgrass (Alopecurus myosuroides), Italian ryegrass (Lolium multiflorum), wheat, winter (winter wheat, Triticum aestivum), galium (catchweed bedstraw, Galium aparine), corn (Zea mays), large (Lg) crabgrass (Digitaria sanguinalis), giant foxtail (Setaria faberii), johnsongrass (Sorghum halepense), lambsquarters (Chenopodium album), morningglory (Ipomoea coccinea), yellow nutsedge (Cyperus esculentus), pigweed (Amaranthus retroflexus), ragweed (common ragweed, Ambrosia elatior), soybean (Glycine max), barnyardgrass (Echinochloa crus-galli), oilseed rape (Brassica napus), waterhemp (common waterhemp, Amaranthus rudis), kochia (Kochia scoparia), wild oat (Avena fatua), surinam grass (Brachiaria decumbens), foxtail, green (green foxtail, Setaria viridis), goosegrass (Eleusine indica), bromegrass, downy (downy bromegrass, Bromus tectorum), nightshade (eastern black nightshade, Solanum ptycanthum), cocklebur (common cocklebur, Xanthium strumarium), cupgrass, woolly (woolly cupgrass, Eriochloa villosa), bermudagrass (Cynodon dactylon), sunflower, (common oilseed sunflower, Helianthus annuus), Russian thistle (Salsola kali), and velvetleaf (Abutilon theophrasti) were planted into a blend of loam soil and sand and treated preemergence with test chemicals formulated in a non-phytotoxic solvent mixture which included a surfactant.
(§2) At the same time, plants selected from these crop and weed species and also barley, winter (winter barley, Hordeum vulgare), windgrass (Apera spica-venti), chickweed (common chickweed, Stellaria media), deadnettle (henbit deadnettle, Lamium amplexicaule), and canarygrass (littleseed canarygrass, Phalaris minor) were planted in pots containing Redi-Earth® planting medium (Scotts Company, 14111 Scottslawn Road, Marysville, Ohio 43041) comprising spaghnum peat moss, vermiculite, wetting agent and starter nutrients and treated with postemergence applications of test chemicals formulated in the same manner. Plants ranged in height from 2 to 18 cm (1- to 4-leaf stage) for postemergence treatments. Treated plants and controls were maintained in a greenhouse for 13 to 15 days, after which time all species were compared to controls and visually evaluated. Plant response ratings, summarized in Table C, are based on a scale of 0 to 100 where 0 is no effect and 100 is complete control. A dash (-) response means no test result.

foxtail, green [1] = test: Test C preemergence; type: in vivo, Setaria viridis; details: for Foxtail, Green plant response rating: preemergence, scale 0 (no effect) to 100 (complete control)
Description: as §1, §2

cocklebur = test: Test C preemergence; type: in vivo, Xanthium strumarium; details: for Cocklebur plant response rating: preemergence, scale 0 (no effect) to 100 (complete control)
Description: as §1, §2

barley, winter = test: Test C postemergence; type: in vivo, Hordeum vulgare; details: for Plant response rating (0 to 100), Barley: postemergence; for Plant response rating, Barley: Postemergence, scale 0 to 100 (0 no effect, 100 complete control)
Description: as §1, §2

goosegrass [2] = test: Test C postemergence; type: in vivo, Eleusine indica; details: for Plant response rating (0 to 100), Goosegrass: postemergence; for Plant response rating, Goosegrass: Postemergence, scale 0 to 100 (0 no effect, 100 complete control)
Description: as §1, §2

foxtail, green [3] = test: Test C postemergence; type: in vivo, Setaria viridis; details: for Plant response rating (0 to 100), Foxtail, Green: postemergence; for Plant response rating, Foxtail, Green: Postemergence, scale 0 to 100 (0 no effect, 100 complete control)
Description: as §1, §2

cupgrass, woolly [4] = test: Test C postemergence; type: in vivo, Eriochloa villosa; details: for Plant response rating (0 to 100), Cupgrass, Woolly: postemergence; for Plant response rating, Cupgrass, Woolly: Postemergence, scale 0 to 100 (0 no effect, 100 complete control)
Description: as §1, §2

surinam grass = test: Test C preemergence; type: in vivo, Brachiaria decumbens; details: for Surinam Grass plant response rating: preemergence, scale 0 (no effect) to 100 (complete control)
Description: as §1, §2

nightshade = test: Test C preemergence; type: in vivo, Solanum ptycanthum; details: for Nightshade plant response rating: preemergence, scale 0 (no effect) to 100 (complete control)
Description: as §1, §2

goosegrass [5] = test: Test C preemergence; type: in vivo, Eleusine indica; details: for Goosegrass plant response rating: preemergence, scale 0 (no effect) to 100 (complete control)
Description: as §1, §2

bromegrass, downy = test: Test C preemergence; type: in vivo, Bromus tectorum; details: for Bromegrass, Downy plant response rating: preemergence, scale 0 (no effect) to 100 (complete control)
Description: as §1, §2

cupgrass, woolly [6] = test: Test C preemergence; type: in vivo, Eriochloa villosa; details: for Cupgrass, Woolly plant response rating: preemergence, scale 0 (no effect) to 100 (complete control)
Description: as §1, §2

[7] = Preemergence, 31 g ai/ha, scale 0 to 100, 0 no effect, 100 complete control

FC(F)(F)c1cnn(-c2ccccc2Oc2ncc(Cl)cn2)c1 [Compound 16]
Kochia plant response rating (kochia; 62 g ai/ha): 80 | Kochia plant response rating (kochia; 125 g ai/ha): 85 | Kochia plant response rating (kochia; 250 g ai/ha): 100 | Plant response rating, Kochia (kochia; [7]): 50 | Foxtail, Green plant response rating (foxtail, green [1]; 62 g ai/ha): 90 | Foxtail, Green plant response rating (foxtail, green [1]; 125 g ai/ha): 90 | Foxtail, Green plant response rating (foxtail, green [1]; 250 g ai/ha): 90 | Plant response rating, Foxtail, Green (foxtail, green [1]; [7]): 90 | Cocklebur plant response rating (cocklebur; 62 g ai/ha): 5 | Cocklebur plant response rating (cocklebur; 125 g ai/ha): 5 | Cocklebur plant response rating (cocklebur; 250 g ai/ha): 20 | Plant response rating, Cocklebur (cocklebur; [7]): 0 | Plant response rating (0 to 100), Barley (barley, winter; 125 g ai/ha): 10 | Plant response rating (0 to 100), Barley (barley, winter; 250 g ai/ha): 35 | Plant response rating, Barley (barley, winter; 31 g ai/ha, 13 to 15 days): 0 | Plant response rating, Barley (barley, winter; 62 g ai/ha): 5 | Plant response rating (0 to 100), Goosegrass (goosegrass [2]; 125 g ai/ha): 15 | Plant response rating (0 to 100), Goosegrass (goosegrass [2]; 250 g ai/ha): 30 | Plant response rating, Goosegrass (goosegrass [2]; 31 g ai/ha, 13 to 15 days): 0 | Plant response rating, Goosegrass (goosegrass [2]; 62 g ai/ha): 10 | Plant response rating (0 to 100), Foxtail, Green (foxtail, green [3]; 125 g ai/ha): 30 | Plant response rating (0 to 100), Foxtail, Green (foxtail, green [3]; 250 g ai/ha): 100 | Plant response rating, Foxtail, Green (foxtail, green [3]; 31 g ai/ha, 13 to 15 days): 10 | Plant response rating, Foxtail, Green (foxtail, green [3]; 62 g ai/ha): 30 | Plant response rating (0 to 100), Cupgrass, Woolly (cupgrass, woolly [4]; 125 g ai/ha): 20 | Plant response rating (0 to 100), Cupgrass, Woolly (cupgrass, woolly [4]; 250 g ai/ha): 30 | Plant response rating, Cupgrass, Woolly (cupgrass, woolly [4]; 31 g ai/ha, 13 to 15 days): 5 | Plant response rating, Cupgrass, Woolly (cupgrass, woolly [4]; 62 g ai/ha): 15 | Surinam Grass plant response rating (surinam grass; 62 g ai/ha): 100 | Surinam Grass plant response rating (surinam grass; 125 g ai/ha): 100 | Surinam Grass plant response rating (surinam grass; 250 g ai/ha): 100 | Plant response rating, Surinam Grass (surinam grass; [7]): 25 | Nightshade plant response rating (nightshade; 62 g ai/ha): 65 | Nightshade plant response rating (nightshade; 125 g ai/ha): 80 | Nightshade plant response rating (nightshade; 250 g ai/ha): 98 | Plant response rating, Nightshade (nightshade; [7]): 20 | Goosegrass plant response rating (goosegrass [5]; 62 g ai/ha): 98 | Goosegrass plant response rating (goosegrass [5]; 125 g ai/ha): 100 | Goosegrass plant response rating (goosegrass [5]; 250 g ai/ha): 100 | Plant response rating, Goosegrass (goosegrass [5]; [7]): 75 | Bromegrass, Downy plant response rating (bromegrass, downy; 62 g ai/ha): 60 | Bromegrass, Downy plant response rating (bromegrass, downy; 125 g ai/ha): 90 | Bromegrass, Downy plant response rating (bromegrass, downy; 250 g ai/ha): 95 | Plant response rating, Bromegrass, Downy (bromegrass, downy; [7]): 30 | Cupgrass, Woolly plant response rating (cupgrass, woolly [6]; 62 g ai/ha): 90 | Cupgrass, Woolly plant response rating (cupgrass, woolly [6]; 125 g ai/ha): 98 | Cupgrass, Woolly plant response rating (cupgrass, woolly [6]; 250 g ai/ha): 98 | Plant response rating, Cupgrass, Woolly (cupgrass, woolly [6]; [7]): 75
